Results from patent US11466029B2, “Compounds useful to treat influenza virus infections” (Nanjing Zhengxiang Pharmaceuticals Co., Ltd., priority 2019, dated 2022).

These compounds were tested on Oseltamivir-resistant A/Weiss/43 (H1N1) (assay: microbe, parasite or virus in culture). Settings: Influenza A virus, H1N1, MDCK, 120 h.
Type: cell-based

Compound | EC50 [nM]
CP(C)(=O)c1cn2c(c(O)c1=O)C(=O)N1CCOC[C@H]1N2[C@@H]1c2ccccc2SCc2c1ccc(F)c2F [Compound E-1c, (R)-12-((S)-7,8-difluoro-6,11-dihydrodibenzo[b,e]thiepin-11-yl)-9-(dimethylphosphoryl)-7-hydroxy-3,4,12,12a-tetrahydro-1H-[1,4]oxazino[3,4-c]pyrido[2,1-f][1,2,4]triazine-6,8-dione] | 254
O=C1c2c(O)c(=O)ccn2N([C@@H]2c3ccccc3[Se]Cc3c2ccc(F)c3F)[C@@H]2COCCN12 [Compound B-1, (R)-12-((S)-7,8-Difluoro-6,11-Dihydrodibenzo[b,e]Selenepin-11-yl)-7-Hydroxy-3,4,12,12a-Tetrahydro-1H-[1,4]Oxazino[3,4-c]Pyrido[2,1-f][1,2,4]Triazine-6,8-Dione] | 1.1
CCP(=O)(CC)c1cn2c(c(O)c1=O)C(=O)N1CCOC[C@H]1N2[C@@H]1c2ccccc2SCc2c1ccc(F)c2F [Compound F-1, (R)-9-(Diethylphosphoryl)-12-((S)-7,8-Difluoro-6,11-Dihydrodibenzo[b,e]-Thiepin-11-yl)-7-Hydroxy-3,4,12,12a-Tetrahydro-1H-[1,4]Oxazino[3,4-c]Pyrido[2,1-f][1,2,4]Triazine-6,8-Dione] | 881
O=C1c2c(O)c(=O)ccn2N([C@@H]2c3ccccc3SCc3c2ccc(F)c3F)[C@@H]2COCCN12 [Baloxavir acid, reference compound] | 1
CCC(CC)O[C@@H]1C=C(C(=O)O)C[C@H](N)[C@H]1NC(C)=O [Oseltamivir acid, reference compound] | > 100000
